Experimental data reported in ChEMBL document CHEMBL3400069, “The amide linker in nonpeptide neurotensin receptor ligands plays a key role in calcium signaling at the neurotensin receptor type 2” (Bioorg Med Chem Lett, 2015).
Active and inactive are the calls of the source. The rule behind the calls is not given here.

Experiments:
[1] = target: Neurotensin receptor type 1 (Rattus norvegicus, UniProt P20789); test: Displacement of [I125]neurotensin from rat NTS1 overexpressed in CHO-k1 cells by competitive binding Assay; format: cell-based
Neurotensin receptor type 1, sequence (P20789 whole entry): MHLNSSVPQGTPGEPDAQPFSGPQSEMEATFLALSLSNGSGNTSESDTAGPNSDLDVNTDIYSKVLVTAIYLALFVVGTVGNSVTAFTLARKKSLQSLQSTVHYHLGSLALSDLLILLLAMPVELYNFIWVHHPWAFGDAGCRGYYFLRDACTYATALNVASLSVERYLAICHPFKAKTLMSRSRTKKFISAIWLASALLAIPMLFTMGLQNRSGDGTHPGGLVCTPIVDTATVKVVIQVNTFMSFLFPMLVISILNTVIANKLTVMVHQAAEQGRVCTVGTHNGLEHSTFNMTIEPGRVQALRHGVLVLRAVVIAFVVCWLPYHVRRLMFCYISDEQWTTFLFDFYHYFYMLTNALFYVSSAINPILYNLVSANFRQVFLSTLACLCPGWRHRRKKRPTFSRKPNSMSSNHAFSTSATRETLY

[2] = target: T1, Neurotensin receptor type 2 (Rattus norvegicus, UniProt Q63384); test: Agonist activity at rat NTS2 overexpressed in CHO-k1 cells assessed as calcium mobilization by FLIPR assay; format: functional, cell-based
T1 sequence (Q63384 whole entry): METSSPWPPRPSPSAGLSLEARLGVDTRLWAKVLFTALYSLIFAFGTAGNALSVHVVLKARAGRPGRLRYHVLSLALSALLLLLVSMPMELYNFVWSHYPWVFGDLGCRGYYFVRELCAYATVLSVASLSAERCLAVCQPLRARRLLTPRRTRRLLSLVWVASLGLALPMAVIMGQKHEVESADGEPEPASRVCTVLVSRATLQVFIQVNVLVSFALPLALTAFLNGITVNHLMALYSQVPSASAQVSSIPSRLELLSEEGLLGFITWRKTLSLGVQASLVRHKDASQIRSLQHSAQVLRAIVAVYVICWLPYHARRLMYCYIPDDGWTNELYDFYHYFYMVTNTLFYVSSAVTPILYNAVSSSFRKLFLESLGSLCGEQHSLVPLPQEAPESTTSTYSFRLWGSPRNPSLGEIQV

[3] = target: T1, Neurotensin receptor type 2; test: Displacement of [I125]neurotensin from rat NTS2 overexpressed in CHO-k1 cells by competitive binding Assay; format: cell-based
[4] = target: T2, Neurotensin receptor type 2 (Rattus norvegicus) (UniProt Q63384); test: Agonist activity at rat NTS2 overexpressed in CHO-k1 cells assessed as calcium mobilization by FLIPR assay relative to SR142948a; format: functional, cell-based
T2 sequence (whole entry): T1 sequence (Q63384 whole entry)

[5] = target: Neurotensin receptor type 1 (Rattus norvegicus) (UniProt P20789); test: Antagonist activity at rat NTS1 overexpressed in CHO-k1 cells assessed as blockade of neurotensin-mediated calcium mobilization after 15 mins by FLIPR assay; format: functional, cell-based
Neurotensin receptor type 1 (Rattus norvegicus), sequence (P20789 whole entry): as the sequence (P20789 whole entry) above

| Structure (SMILES) | Ki [1] [nM] | EC50 ([2]; cho-k1) | Ki [3] [nM] | Emax [4] [%] | EC50 ([2]; read-out: EC50) [nM] | Ke [5] |
| --- | --- | --- | --- | --- | --- | --- |
| COc1ccccc1-c1cc(C(=O)NC2(C(=O)O)CCCCC2)nn1-c1ccc(F)cc1 | > 25000 |  |  |  |  |  |
| COc1cccc(OC)c1-c1cc(C(=O)NC2(C(=O)O)CCCCC2)nn1-c1cccc2ccccc12 | 1210 |  |  |  |  |  |
| COc1cccc(OC)c1-c1cc(CN[C@H](C(=O)O)C2CCCCC2)nn1-c1ccnc2cc(Cl)ccc12 | > 10000 | Not Active | > 10000 |  |  |  |
| COc1cccc(OC)c1-c1cc(NC(=O)C2(C(=O)O)CCCCC2)nn1-c1cccc2ccccc12 | 10200 | Not Active | 128 |  |  |  |
| COc1cccc(OC)c1-c1cc(C(=O)NC2(C(=O)O)CCCCC2)nn1-c1ccnc2cc(Cl)ccc12 | 177 |  |  |  |  |  |
| COc1cccc(OC)c1-c1cc(NC(=O)C2(C(=O)O)CCCCC2)nn1-c1ccnc2cc(Cl)ccc12 | 7180 | Not Active | 140 |  |  |  |
| COc1cccc(OC)c1-c1cc(NC(=O)C2(C(=O)O)CCCCC2)nn1-c1ccc(F)cc1 | > 25000 |  | 271 | 10 | 55 | inactive |
| COc1ccccc1-c1cc(NC(=O)C2(C(=O)O)CCCCC2)nn1-c1ccc(F)cc1 | > 25000 |  | 6340 | 13 | 951 | inactive |
